Data on two compounds can be found in patent publication US4992581A, “Novel methods of manufacturing thromboxane A2 antagonists” (National Research Development Corporation, priority 1988, dated 1991).

What is called pIC50 is −log10 of the IC50, conventionally taken in molar units. A low value points to a high IC50.

The test system of test [1] is U-46619-induced platelet aggregation (rat platelet rich plasma). The test is described as follows: Inhibition of U-46619-induced platelet aggregation in vitro in rat platelet rich plasma. Type of test: cell-based. The conditions noted are these: rat PRP. As for the experimental part:
Platelet rich plasma (PRP) was prepared from heparanized whole blood (5 units/ml) drawn from the abdominal aorta of ether anesthetized rats. PRP was prepared by centrifugation (Sorvall RC2B, DuPont, Wilmington, Del.) of the whole blood at 150×g for 10 min. Platelet poor plasma (PPP) was prepared by centrifugation at 1200×g for 20 min. Aliquots of PRP and PPP were used to standardize the aggregometer (Payton, Buffalo, N.Y., model 300B) with the recorder (Riken Denshi 2 channel recorder, Payton, model SP-H5P) for measurement of minimum and maximum light transmittance, respectively.
Platelet aggregation was measured as an increase in light transmittance. PRP (390 μl aliquot 5 μl compound vehicle) was preincubated for 1 min. at 37° C., with stirring at 900 rpm in the aggregometer. […] Amount of aggregation was measured by grids on the strip chart.
Compounds were dissolved in either ethanol (ETOH) or Na2 CO3 (0.1 M) and preincubated at the desired concentration in PRP for 1 min. at 37° C. with stirring. […] Dose response curves were generated and IC50 's calculated by linear regression.

Test [2] concerns washed human platelets. The test is described as follows: Analysis of partial agonism (human washed platelets). The format is cell-based. As to conditions: 5 and 10 min. incubation. The procedure:
Sixty ml of blood were drawn into 1/10 volume of CCD (100 mM Na Citrate and 136 mM glucose, pH 6.5 with HCl) and PRP prepared as described above. PRP was placed on ice for 15 min. One half of the volume of CCD was added and recentrifuged. The platelet pellet was gently resuspended in 1/2 the original volume of PRP in a 0° C. modified Tangen-Hepes-BSA buffer (145 mM NaCl, 5 mM KCl, 0.05 mM CaCl2, 0.1 mM MgCl2, 11 mM glucose, 15 mM Hepes, 1 mg/ml bovine serum albumin, pH adjusted to 7.4 with NaOH). The resuspended platelets were incubated undisturbed at 37° C. for 30 min. After incubation a platelet count was determined and adjusted to 3×10^8 cells/ml with the Tangen-Hepes-BSA buffer.
425 μl of the washed human platelet suspension was incubated in the aggregometer in the presence of 16 mM CaCl2 (50 μl) and SC-46985 for 5 and 10 min. […] (In a study similar to (a) above, aliquots of human washed platelets were incubated with various concentrations of SC-46985 and U-46619 to determine dose-related inhibition of aggregation).

Molecules are shown by their SMILES. pIC50: −log10 of the molar value.

Turning to `CC(=NNC(=S)Nc1ccccc1)[C@@H]1[C@H]2CC[C@H](C2)[C@H]1C/C=C\CCCC(=O)O` (relative stereo) [SC-44161, (±)7-[3α[[(Phenylamino)thioxomethyl]hydrazono]ethyl]1α,4α-bicyclo[2.2.1]hept-2β-yl]-5Z-heptenoic acid], in test [1] (Na Carbonate vs ETOH vehicle), the “fold more potent in aqueous solution than in ethanol” value is given as 5-10 fold. In test [1] (Rattus norvegicus, Platelet, vehicle ETOH), this compound showed a pIC50 of 6.59.
Consider `CC(=NNC(=S)Nc1ccccc1)[C@H]1[C@@H]2CC[C@@H](C2)[C@@H]1C/C=C\CCCC(=O)O` [SC-46985], for which the partial agonist activity result in test [2] was “lack of partial agonist activity”. Besides, the “shape change or aggregation” value in test [2] (no U-46619) is given as “no evidence of shape change or aggregation”.
